Assays:
[1] = target: T1, GFAT1L (Homo sapiens, UniProt Q06210); test: GFAT activity assay (spectrophotometric, GDH/APAD coupled): Km values and inhibition pattern of UDP-G1cNAc, GFAT1L; type: biochemical
T1 construct: made in house; host or cells: E. coli BL21-CodonPlus(DE3)RIL, pET23b vector; ultracentrifuged lysate supernatant, not purified
Description: (§1) GFAT activity was determined in accordance with Marshall et al. by means of spectrophotometry using a microplate (96 wells) (Journal of Biological Chemistry, vol. 266 No. 8, 4706–4712 (1991)) in the following manner. Glutamate produced by GFAT was allowed-to react with glutamate dehydrogenase (GDH), during which a reductive reaction of coenzyme APAD into APADH proceeded simultaneously. Changes in absorbance that accompany the reduction reaction of APAD to APADH are considered to represent GFAT activity.
(§2) Briefly, an appropriately diluted solution of a lyzate of GFAT1L- or GFAT1S-introduced E. coli (50 μl) was added to a substrate solution (200 μl) containing a sodium phosphate buffer (pH=7.5; 40 mM), potassium chloride (50 mM), EDTA (1.25 mM), APAD (0.3 mM), GDH (6 U/ml), glutamine (0–6 mM), and fructose-6-phosphate (F-6-P: 0–6 mM), and the mixture was allowed to react at 37° C. for 60 minutes. The absorbance change at 365 nm associated with the reaction was measured by use of a microplate reader.
(§3) In order to study the difference in terms of enzymatic behavior between GFAT1L and GFAT1S, Km values were determined using, as substrates, glutamine and F-6-P. Km values were calculated on the basis of :S/v−S plotting and v−v/S plotting, which were made with regard to the enzyme substrate concentration (S) and activity of the enzyme (reaction rate (v)). […]

[2] = target: T2, GFAT1S (Homo sapiens, UniProt Q06210); test: GFAT activity assay (spectrophotometric, GDH/APAD coupled): Km values and inhibition pattern of UDP-G1cNAc, GFAT1S; type: biochemical
T2 construct: made in house; host or cells: E. coli BL21-CodonPlus(DE3)RIL, pET23b vector; ultracentrifuged lysate supernatant, not purified
T2 sequence (Q06210 1-681 isoform Q06210-2): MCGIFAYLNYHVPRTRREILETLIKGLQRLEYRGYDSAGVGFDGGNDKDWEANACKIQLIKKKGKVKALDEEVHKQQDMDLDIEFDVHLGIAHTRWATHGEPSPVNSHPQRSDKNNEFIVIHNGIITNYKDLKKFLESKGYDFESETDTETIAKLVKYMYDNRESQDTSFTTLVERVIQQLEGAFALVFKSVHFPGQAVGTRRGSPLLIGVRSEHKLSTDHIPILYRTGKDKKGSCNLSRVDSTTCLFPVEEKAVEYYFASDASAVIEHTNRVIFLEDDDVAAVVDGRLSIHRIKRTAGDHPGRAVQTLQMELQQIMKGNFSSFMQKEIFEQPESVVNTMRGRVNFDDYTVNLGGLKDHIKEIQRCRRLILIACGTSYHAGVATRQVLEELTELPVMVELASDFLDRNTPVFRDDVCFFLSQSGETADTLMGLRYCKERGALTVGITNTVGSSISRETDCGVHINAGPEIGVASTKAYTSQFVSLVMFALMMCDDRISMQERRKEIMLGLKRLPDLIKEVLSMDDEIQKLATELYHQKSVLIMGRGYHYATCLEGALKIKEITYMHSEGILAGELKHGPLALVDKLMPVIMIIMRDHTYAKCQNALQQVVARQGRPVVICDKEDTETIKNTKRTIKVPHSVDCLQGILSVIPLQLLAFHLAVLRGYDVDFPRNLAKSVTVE
Description: as §1, §2, §3

[3] = F-6-P as substrate, UDP-G1cNAc 30, 100 μM
[4] = glutamine as substrate, UDP-G1cNAc 10, 30, 100 μM

T1 sequence (Q06210 whole entry): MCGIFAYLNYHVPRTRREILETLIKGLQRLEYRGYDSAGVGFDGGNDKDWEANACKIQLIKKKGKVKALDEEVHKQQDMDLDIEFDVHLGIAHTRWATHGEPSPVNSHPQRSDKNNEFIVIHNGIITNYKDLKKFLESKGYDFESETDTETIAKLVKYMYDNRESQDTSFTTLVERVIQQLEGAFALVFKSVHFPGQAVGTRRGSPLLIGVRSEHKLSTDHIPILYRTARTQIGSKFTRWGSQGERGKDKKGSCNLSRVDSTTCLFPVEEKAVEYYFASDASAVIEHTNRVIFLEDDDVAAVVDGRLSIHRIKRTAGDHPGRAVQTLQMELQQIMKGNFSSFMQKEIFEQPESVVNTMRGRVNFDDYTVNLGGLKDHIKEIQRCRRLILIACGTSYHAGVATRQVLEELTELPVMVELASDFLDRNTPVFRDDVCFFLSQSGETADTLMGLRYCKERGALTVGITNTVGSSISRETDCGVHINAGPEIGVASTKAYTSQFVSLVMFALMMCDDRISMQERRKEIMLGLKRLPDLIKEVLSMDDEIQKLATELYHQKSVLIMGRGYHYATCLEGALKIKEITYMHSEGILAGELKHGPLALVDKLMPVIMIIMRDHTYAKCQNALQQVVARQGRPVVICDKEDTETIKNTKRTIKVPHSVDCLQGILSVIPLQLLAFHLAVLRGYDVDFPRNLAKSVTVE

CC(=O)N[C@H]1[C@@H](OP(=O)(O)OP(=O)(O)OC[C@H]2O[C@@H](n3ccc(=O)[nH]c3=O)[C@H](O)[C@@H]2O)O[C@H](CO)[C@@H](O)[C@@H]1O [UDP-G1cNAc, UDP-N-acetylglucosamine]
Inhibition pattern of UDP-G1cNAc against GFAT activity, F-6-P [1, 3]: mixed inhibition | Inhibition pattern of UDP-G1cNAc against GFAT activity, Glutamine [1, 4]: mixed inhibition | Inhibition pattern of UDP-G1cNAc against GFAT activity, F-6-P [2, 3]: competitive inhibition | Inhibition pattern of UDP-G1cNAc against GFAT activity, Glutamine [2, 4]: un-competitive inhibition

From US7091018B2, “Enzyme gene and its expression product” (Otsuka Pharmaceutical Co., Ltd., priority 2000, dated 2006)
